Assay results taken from patent US11352352B2, “Aminopyrimidine compound, preparation method therefor and use thereof” (BEIJING ADAMADLE BIOTECHNOLOGY LIMITED LIABILITY COMPANY, priority 2017, dated 2022).

What was measured:
Test in all cases: Cell proliferation inhibition experiment, CellTiter-Glo (CTG) method
Assay type in all cases: cell-based
[1] = test system: A-431; settings: Homo sapiens, A-431, 72 h, A-431 cells, 3 days
Experimental: (§1) Cell Proliferation Inhibition Experiment
(§2) Compounds were tested in the selected cell lines, and solvent is set as control, nine concentrations were detected with three parallel wells for each concentration.
(§3) 2. Reagents and Materials • 1) fetal bovine serum FBS (GIBCO, Cat #10099-141) • 2) CellTiter-Glo® Luminescent Cell Viability Assay (Promega, Cat #G7572) • 3) 96-well plate with flat clear bottom, black wall plates (Corning®, Cat #3340)
(§4) The first day: Incubation and plant of cells • 1) Cells in logarithmic growth phase were harvested and counted by cell counter. Cell viability was detected by trypan blue exclusion assay to ensure that the viability of each cell line was above 90%. • 2) Cell concentration was adjusted by diluting complete culture medium, and 90 μL cell suspension was added to a 96-well plate (T0 plate and drug plate to be tested) to make the cell density reach the specified concentration. • 3) Cells in 96-well plate were incubated overnight at condition of 37° C., 5% CO2 and 95% humidity.
(§5) The second day: Reading T0 plate • 1) 10 μL culture medium was added to T0 plate. • 2) CTG reagent was melt, while the cell plate was balanced to room temperature for 30 minutes. • 3) The same volume of CTG solution was added to each well. • 4) The cell plate was vibrated for 2 minutes on an orbital shaker to lyze the cells. • 5) The cell plate was placed at room temperature for 10 minutes to stabilize the cold light signal. • 6) The cold light value was read with EnVision.
Drug Addition • 1) Drug dilution. The compounds to be tested were dissolved and packaged, then a gradient elution was performed to obtain a solution diluted 10 times. • 2) Drug addition. […] drug solution was added into each well of the 96-well plate, which was inoculated cells, three parallel wells were set for each cell concentration. The highest concentration of the compounds to be tested on A-431 was 30 μM, nine concentrations was set with 3 times dilution; while the highest concentration on NCI-H1975 and PC-9 was 1.111 μM, 9 concentrations was set with 3 times dilution. • 3) Culture. Cells in 96-well plates in which drugs have been added were cultured at condition of 37° C., 5% CO2 and 95% humidity for 3 days, and then CTG assay was performed respectively.
(§6) The third day: reading plate at the terminal • 1) CTG reagent was melt, while the cell plate was balanced to room temperature for 30 minutes. • 2) The same volume of CTG solution was added to each well. • 3) The cell plate was vibrated for 2 minutes on an orbital shaker to lyze the cells. • 4) The cell plate was placed at room temperature for 10 minutes to stabilize the cold light signal. • 5) The cold light value was read with EnVision
(§7) Data were analyzed using GraphPad Prism 5.0 software, and non-linear S curve regression was used for fitting the data to give a dose-effect curve, IC50 value was calculated accordingly. Cell Survival Rate (%)=(Lumdrugs−Lumcontrol)/(Lumcell−Lumcontrol)×100%.

[2] = test system: PC-9; settings: Homo sapiens, PC-9, 72 h, PC-9 cells, 3 days
Experimental: as §1, §2, §3, §4, §5
(§8) Drug Addition • 1) Drug dilution. The compounds to be tested were dissolved and packaged, then a gradient elution was performed to obtain a solution diluted 10 times. • 2) Drug addition. […] drug solution was added into each well of the 96-well plate, which was inoculated cells, three parallel wells were set for each cell concentration.
as §6, §7

[3] = test system: NCI-H1975; settings: for IC50: Homo sapiens, NCI-H1975, 72 h, NCI-H1975 cells, CTG, 3 days; for A-431/NCI-H1975 Selectivity: ratio of A-431 IC50 to NCI-H1975 IC50
Experimental: as §1, §2, §3, §4, §5, §8, §6, §7

SMILES | IC50 [1] | IC50 [2] | IC50 [3] | A-431/NCI-H1975 Selectivity [3]
C=CC(=O)Nc1cc(Nc2cc(-c3ccc4cnn(C)c4c3)ncn2)c(OC)cc1N1CC(C)N(C)C(C)C1 (centres unmarked) [compound 42] | 0.686 µM | 0.0346 µM | 0.0258 µM | –
C=CC(=O)Nc1cc(Nc2cc(-c3ccc4cnn(C)c4c3)ncn2)c(OC)cc1N1CCN(C)CC1 [compound 43] | 1.14 µM | 0.0167 µM | 0.0298 µM | 38.3
C=CC(=O)Nc1cc(Nc2cc(-c3ccc4cnn(C)c4c3)ncn2)c(OC)cc1N1CCN(C)C[C@H]1C [compound 44] | 1.6 µM | 0.0328 µM | 0.102 µM | 15.7
C=CC(=O)Nc1cc(Nc2cc(-c3ccc4cnn(C)c4c3)ncn2)c(OC)cc1N1CCC(OC)CC1 [compound 45] | 2.61 µM | 0.0236 µM | 0.137 µM | 19.0
C=CC(=O)Nc1cc(Nc2cc(-c3ccc4cnn(C)c4c3)ncn2)c(OC)cc1N1CCN(C2CCOCC2)CC1 [compound 46] | 1.25 µM | 0.0327 µM | 0.0828 µM | 15.1
C=CC(=O)Nc1cc(Nc2cc(-c3ccc4cnn(C)c4c3)ncn2)c(OC)cc1N1CCCN(C)CC1 [compound 47] | 0.671 µM | 0.034 µM | 0.049 µM | 13.7
C=CC(=O)Nc1cc(Nc2cc(-c3ccc4cnn(C)c4c3)ncn2)c(OC)cc1N1CCN(CC)[C@@H](C)C1 [compound 48] | 1.39 µM | 0.0497 µM | 0.0672 µM | 20.7
C=CC(=O)Nc1cc(Nc2cc(-c3ccc4cnn(C)c4c3)ncn2)c(OC)cc1N1CCN(CC)[C@H](C)C1 [compound 49] | 1.47 µM | 0.088 µM | 0.0856 µM | 17.2
C=CC(=O)Nc1cc(Nc2cc(-c3ccc4cnn(C)c4c3)ncn2)c(OC)cc1N1CCN(C)[C@@H](C)C1 [compound 50] | 1.08 µM | 0.0475 µM | 0.0592 µM | 18.2
C=CC(=O)Nc1cc(Nc2cc(-c3ccc4cnn(C)c4c3)ncn2)c(OC)cc1N1CCN(C)[C@H](C)C1 [compound 51] | 1.45 µM | 0.0598 µM | 0.0694 µM | 20.8
C=CC(=O)Nc1cc(Nc2cc(-c3ccc4cnn(C)c4c3)ncn2)c(OC)cc1N1CCC(N2CCN(C)CC2)CC1 [compound 52] | 0.615 µM | 0.039 µM | 0.0417 µM | 14.7
C=CC(=O)Nc1cc(Nc2cc(-c3ccc4cnn(C)c4c3)ncn2)c(OC)cc1N1CCC(C2CCN(C)CC2)CC1 [compound 53] | 1.25 µM | 0.0679 µM | 0.151 µM | 8.3
C=CC(=O)Nc1cc(Nc2cc(-c3ccc4cnn(C)c4c3)ncn2)c(OC)cc1N(C)C1CCN(C)CC1 [compound 54] | 1.31 µM | 0.0882 µM | 0.111 µM | 11.8
C=CC(=O)Nc1cc(Nc2cc(-c3ccc4cnn(C)c4c3)ncn2)c(OC)cc1N1CCC(N2CCOCC2)CC1 [compound 55] | 0.586 µM | 0.0036 µM | 0.0322 µM | –
C=CC(=O)Nc1cc(Nc2cc(-c3ccc4c(C)nn(C)c4c3)ncn2)c(OC)cc1N1CC(C)N(C)C(C)C1 (centres unmarked) [compound 56] | 1.23 µM | 0.0567 µM | 0.113 µM | 10.9
C=CC(=O)Nc1cc(Nc2cc(-c3ccc4c(cnn4C)c3)ncn2)c(OC)cc1NCCN(C)C [compound 58] | 1.13 µM | 0.0069 µM | 0.0088 µM | –
C=CC(=O)Nc1cc(Nc2cc(-c3ccc4c(cnn4C)c3)ncn2)c(OC)cc1N1CCN(CCN(C)C)CC1 [compound 59] | 1.27 µM | 0.0089 µM | 0.01 µM | –

SMILES | IC50 [1] | IC50 [2] | IC50 [3] | A-431/NCI-H1975 Selectivity [3]
C=CC(=O)Nc1cc(Nc2cc(-c3ccc4c(cnn4C)c3)ncn2)c(OC)cc1N(C)CCNC(C)(C)C [compound 61] | 1.62 µM | 0.0094 µM | 0.0178 µM | –
C=CC(=O)Nc1cc(Nc2cc(-c3ccc4ncsc4c3)ncn2)c(OC)cc1N(C)CCN(C)C [compound 63] | 0.54 µM | 0.0065 µM | 0.0041 µM | 130.7
C=CC(=O)Nc1cc(Nc2cc(-c3ccc4ncsc4c3)ncn2)c(OC)cc1N1CCC(N2CCN(C)CC2)CC1 [compound 64] | 0.69 µM | 0.0054 µM | 0.0131 µM | 52.6
C=CC(=O)Nc1cc(Nc2cc(-c3ccc4nc(C)sc4c3)ncn2)c(OC)cc1N(C)CCN(C)C [compound 65] | 0.765 µM | 0.012 µM | 0.0109 µM | 70.2
C=CC(=O)Nc1cc(Nc2cc(-c3ccc4c(cnn4C)c3)ncn2)c(OCC)cc1N(C)C1CCN(C)C1 (centres unmarked) [compound 66] | 0.779 µM | 0.0085 µM | 0.0081 µM | 96.2
C=CC(=O)Nc1cc(Nc2cc(-c3ccc4c(cnn4C)c3)ncn2)c(OC(F)F)cc1N(C)CCN1CCN(C)CC1 [compound 67] | 0.891 µM | 0.015 µM | 0.0146 µM | 61.0
C=CC(=O)Nc1cc(Nc2cc(-c3ccc4c(cnn4C)c3)ncn2)c(OC)cc1N(C)C1CCCN(C)C1 (centres unmarked) [compound 69] | 1.83 µM | 0.0104 µM | 0.0134 µM | 136.8
C=CC(=O)Nc1cc(Nc2cc(-c3ccc4c(cnn4C)c3)ncn2)c(OC)cc1N(C)C1CCC(N(C)C)CC1 (centres unmarked) [compound 71] | 2.56 µM | 0.0278 µM | 0.0331 µM | 77.3
C=CC(=O)Nc1cc(Nc2cc(-c3ccc4c(cnn4C)c3)ncn2)c(OC)cc1N(C)C1CCC(N2CCN(C)CC2)CC1 (centres unmarked) [compound 72] | 1.9 µM | 0.0297 µM | 0.0452 µM | 42.1
C=CC(=O)Nc1cc(Nc2cc(-c3ccc4cnn(C)c4c3)ncn2)c(OC)cc1N(C)C1CCCN(C)C1 (centres unmarked) [compound 73] | 1.03 µM | 0.0504 µM | 0.0653 µM | 15.7
C=CC(=O)Nc1cc(Nc2cc(-c3ccc4cnn(C)c4c3)ncn2)c(OC)cc1N(C)C1CCN(C)C1 (centres unmarked) [compound 74] | 1.15 µM | 0.0106 µM | 0.0319 µM | 36.0
C=CC(=O)Nc1cc(Nc2cc(-c3ccc4c(cnn4C)c3)ncn2)c(OC(C)C)cc1N(C)CCN(C)C [compound 75] | 1.5 µM | 0.0136 µM | 0.0243 µM | 61.7
C=CC(=O)Nc1cc(Nc2cc(-c3ccc4c(cnn4C)c3)ncn2)c(OC)cc1N(C)CCN(C)C(C)=O [compound 76] | 9.45 µM | 0.0579 µM | 0.0873 µM | 108.3
C=CC(=O)Nc1cc(Nc2cc(-c3ccc4cnn(C)c4c3)ncn2)c(OC)cc1N1CCN(CCN(C)C)CC1 [compound 77] | 1.15 µM | 0.0164 µM | 0.0345 µM | 33.5
C=CC(=O)Nc1cc(Nc2cc(-c3ccc4cnn(C)c4c3)ncn2)c(OC)cc1N(C)CCN1CCN(C)CC1 [compound 78] | 1.03 µM | 0.0478 µM | 0.0618 µM | 16.7
C=CC(=O)Nc1cc(Nc2cc(-c3ccc4cnn(C)c4c3)ncn2)c(OC)cc1N(C)CCCN(C)C [compound 79] | 1.1 µM | 0.0679 µM | 0.0736 µM | 15
C=CC(=O)Nc1cc(Nc2cc(-c3ccc4cnn(C)c4c3)ncn2)c(OC)cc1N(C)CCN(CC)CC [compound 80] | 0.586 µM | 0.0359 µM | 0.043 µM | 13.6
